Assay results taken from patent publication US9388126B2, “Sigma receptor ligands and methods of modulating cellular protein homeostasis using same” (Drexel University, priority 2012, dated 2016).
pEC50: −log10 of the molar value.

Experiments:
[1] = test system: MDA-MB-468 breast adenocarcinoma cells; assay: LC3 lipidation (LC3II) immunoblot; assay type: cell-based, human; settings: 24 hours
Procedure: Cells were lysed and proteins extracted in a modified RIPA buffer (25 mM Tris-HCl pH 7.6, 150 mM NaCl, 1% NP-40, 1% sodium deoxycholate and 0.1% SDS) supplemented with 10% glycerol (volume/volume), complete protease inhibitor cocktail (Roche), and Halt phosphatase inhibitor cocktail (Pierce). Approximately 10-20 μg of detergent soluble protein were resolved on NOVEX 10-20% polyacrylamide Tris-glycine gels (InVitrogen). Immunoblots were performed in a 20 mM Tris-buffered 137 mM saline solution (pH 7.6) containing 0.1% Tween-20 (polyoxyethylene (20) sorbitan monolaurate) and 5% (weight/volume) blotting grade non-fat dry milk (BioRad). The Lumigen PS-3 enhanced chemiluminescence kit (GE Healthcare) was used to reveal immunoblotted proteins.
Initially, an established immunoblot-based assay to detect microtubule associated protein light chain 3 (LC3) lipidation was used to test for the activation of autophagy. […] Since transient transfections can produce spurious GFP-LC3 aggregates, stable GFP-LC3 transfected populations of MDA-MB-468 (GFP-LC3) were generated. These cells were treated for 24 hours with increasing concentrations of Sigma receptor antagonists and agonists, and were compared to basal and DMSO treated controls (FIGS. 4B & 4C).

MDA-MB-468 cells = assay: Cell size by flow cytometry (mean FSC-H, G1 phase); assay type: cell-based, human; settings: 10 μM
Procedure: FIG. 11 is a graph illustrating decrease in MDAMB468 cell size associated with the Sigma1 antagonist treatment. MDA-MB-468 cells were treated for 24 hours with DMSO (control), 10 μM IPAG (antagonist), or 10 μM PRE084 (agonist). Cell size was quantitated by flow cytometry, using a Becton Dickinson FACS Calibur flow cytometer with Cell Quest software. The mean forward scatter height (FSC-H) of the G1-phase population was determined as a measure of relative cell size. Single cells were gated away from aggregated cells using an FL2-width versus FL-2 area dot plot. Mean FSC-H±S.E. was calculated from at least 4 independent determinations. For each FSC-H determination, FACS analysis was performed on 10,000 single cells. The mean FSC-H of DMSO (control) and PRE084 treated MDA-MB-468 measured 370±6 and 372±7, respectively, whereas the mean FSC-H of IPAG treated MDA-MB-468 cells was 323±4. ** P<0.01 for IPAG compared to DMSO and IPAG compared to PRE084.
FIG. 31A is a differential interference contrast (DIC) image of MDA-MB-468 breast adenocarcinoma cells treated for ˜20 hours with DMSO (drug vehicle control), 10 μM IPAG (antagonist) or 10 μM PRE084 (agonist). A twenty-micron bar is shown in each image. Data are presented as mean±SEM. FIG. 31B is a graph illustrating the finding that IPAG diminished the mean cell size (FSC-H) of MDA-MB-468 breast tumor cells in a time-responsive manner. The mean FSC-H of 370±5 at to decreased to 323±4 after 24 hours of IPAG treatment and to 267±2 after 48 hours of treatment. Two-tailed t-tests were performed to determine statistical significance. For IPAG treatment compared to control (DMSO) and Sigma agonists (SKF and PRE084), P=0.0002 at d1 and P=0.00013 at d2. Data were generated from three to five independent determinations for each time-point. […] T-47D were treated for 24 h with 1 and 10 μM IPAG, and mean FSC-H was measured. […] For FIGS. 31B-31E, the mean FSC-H was determined for each cell cycle population (i.e., G1, S, G2/M), and data is shown for G1 phase cells. […]

[2] = biological target: T1, Sigma1-HA-His6 protein associations in MDA-MB-468 cells (Mus musculus, UniProt O55242); assay: Ni-NTA co-purification of Sigma1-HA-His6 associated proteins; assay type: cell-based; settings: 10 μM, 12 hours
T1 construct: expressed in transfected cells; host or cells: MDA-MB-468 breast adenocarcinoma cells
Excerpt: FIG. 44, comprising FIGS. 44A-44D, illustrates the finding that p97/VCP is a Sigma1 associated protein. A novel assay was developed to evaluate Sigma1 ligand modulation of Sigma1 functions involving protein-protein interactions. FIG. 44A is an image of an immunoblot confirming expression of p97/VCP and Sigma1-HA-His6 in detergent soluble cell extracts added to Ni-NTA resin (input). FIG. 44B is an image of an immunoblot relating to eluate from a Ni-NTA affinity purified fraction. Co-isolation/co-purification of p97/VCP was accomplished with Sigma1-HA-His6, which was isolated/purified by Ni-NTA. […] FIG. 44C is an image of an immunoblot confirming expression of p97/VCP and Sigma1-HA-His6 in detergent-soluble cell extracts from MDA-MB-468 breast adenocarcinoma cells treated for 12 hours with 10 μM IPAG (Sigma1 putative antagonist); the extracts were added to Ni-NTA resin (input). FIG. 44D is an image of an immunoblot illustrating eluate from a Ni-NTA affinity purified fraction. Co-isolation/co-purification of p97/VCP was accomplished with Sigma1-HA-His6, which was isolated/purified by Ni-NTA. […] Molecular mass is presented in kilodaltons (kDa).
FIG. 45, comprising FIGS. 45A-45B, illustrates the finding that ubiquitylated proteins are bound to Sigma1. A novel assay was developed to evaluate Sigma1 ligand modulation of Sigma functions involving association with ubiquitylated proteins. […]

T1 sequence (O55242 whole entry): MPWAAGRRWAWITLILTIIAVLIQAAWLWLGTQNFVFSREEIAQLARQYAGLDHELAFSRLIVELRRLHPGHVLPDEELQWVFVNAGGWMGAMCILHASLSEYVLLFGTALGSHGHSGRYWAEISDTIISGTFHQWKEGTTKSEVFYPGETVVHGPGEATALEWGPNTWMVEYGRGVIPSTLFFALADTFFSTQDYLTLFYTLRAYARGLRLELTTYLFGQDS

Structure (SMILES): N=C(Nc1ccc(I)cc1)NC1C2CC3CC(C2)CC1C3 (stereo not drawn) [IPAG, 1-(4-iodophenyl)-3-(2-adamantyl)guanidine]
- conversion of LC3 to LC3II (autophagosome formation) ([1]; 10 μM): converted LC3 to LC3II
- pEC50 ([1]; Homo sapiens, MDA-MB-468, two independent determinations, read-out: mean EC50 of LC3 lipid conjugation (LC3II induction)): 5.15
- mean FSC-H (relative cell size) (MDA-MB-468 cells; 24 hours): 323±4
- mean FSC-H (relative cell size) (MDA-MB-468 cells; 48 hours): 267±2
- Sigma1-associated p97/VCP in Ni-NTA eluate [2]: Lower levels of Sigma1-associated p97/VCP
- Sigma1-associated ubiquitylated proteins in Ni-NTA eluate [2]: Increased levels of Sigma1-associated ubiquitylated proteins
